Measurements published in article PMC9698483, “Berbamine Reduces Chloroquine-Induced Itch in Mice through Inhibition of MrgprX1” (International Journal of Molecular Sciences, 2022).
Values joined by “and” are separate entries in the source; they are usually repeats but may differ in a detail not shown here. Identical values can stand only once.

Experiments:
[1] = target: T1, MrgprX1 (Homo sapiens, UniProt Q96LB2); assay: Intracellular calcium measurement (Fluo-4 NW) in HEK293T cells expressing MrgprX1; type: cell-based
T1 construct: expressed in transfected cells
T1 sequence (Q96LB2 whole entry): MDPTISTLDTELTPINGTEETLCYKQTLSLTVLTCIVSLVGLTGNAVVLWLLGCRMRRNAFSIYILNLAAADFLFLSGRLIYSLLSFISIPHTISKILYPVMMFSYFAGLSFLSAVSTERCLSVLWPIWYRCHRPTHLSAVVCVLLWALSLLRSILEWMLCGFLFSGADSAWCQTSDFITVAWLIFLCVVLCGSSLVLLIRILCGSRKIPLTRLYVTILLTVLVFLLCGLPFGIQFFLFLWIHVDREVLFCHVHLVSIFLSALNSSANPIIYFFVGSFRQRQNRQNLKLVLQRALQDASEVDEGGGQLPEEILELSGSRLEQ
Protocol: To identify novel antagonists of MrgprX1, a cell-based screening assay was established. […] Cells were treated with the indicated concentrations of CQ where the arrow indicates. (B) Summary of dose-response (mean ± S.E., n = 6). (C) Representative Fluo−4 fluorescence traces of MrgprX1 antagonist screening. Cells were treated with 30 μM of the test compounds for 10 min prior to treatment with 300 μM CQ.
Figure 2 Effect of berbamine and closantel on CQ- and ionomycin-induced increases in intracellular calcium levels: (A,B) Intracellular calcium levels were measured using Fluo−4 NW in HEK293T cells expressing MrgprX1. The cells were pretreated with the indicated concentrations of berbamine (BBM) and closantel (CLS) for 10 min prior to treatment with 300 μM CQ. (C) Summary of dose-response (mean ± S.E., n = 6). […] The cells were pretreated with the indicated concentrations of BBM and CLS for 10 min before treatment with ionomycin. (F) Summary of dose–response (mean ± S.E., n = 6).
Intracellular calcium levels were measured using a Fluo-4 NW calcium assay kit (Invitrogen, Carlsbad, CA) as per the manufacturer’s protocol in HEK293T and HT29 cells. Briefly, the cells were plated in a 96-well black-walled plate and incubated with 100 μL of assay buffer including Fluo-4 NW. […] Intracellular calcium increase was induced with the application of the indicated agonist. All modulators were dissolved in DMSO, and cells were treated with a final concentration of 1% DMSO.

[2] = target: T2, histamine H1 receptor (H1R) (Homo sapiens, UniProt P35367); assay: Histamine-induced activation of H1R in H1R-expressing HEK293T cells (calcium); type: cell-based; details: 30 μM compound, 10 min prior to 100 μM histamine
T2 construct: expressed in transfected cells; host or cells: HEK293T
T2 sequence (P35367 whole entry, species assumed): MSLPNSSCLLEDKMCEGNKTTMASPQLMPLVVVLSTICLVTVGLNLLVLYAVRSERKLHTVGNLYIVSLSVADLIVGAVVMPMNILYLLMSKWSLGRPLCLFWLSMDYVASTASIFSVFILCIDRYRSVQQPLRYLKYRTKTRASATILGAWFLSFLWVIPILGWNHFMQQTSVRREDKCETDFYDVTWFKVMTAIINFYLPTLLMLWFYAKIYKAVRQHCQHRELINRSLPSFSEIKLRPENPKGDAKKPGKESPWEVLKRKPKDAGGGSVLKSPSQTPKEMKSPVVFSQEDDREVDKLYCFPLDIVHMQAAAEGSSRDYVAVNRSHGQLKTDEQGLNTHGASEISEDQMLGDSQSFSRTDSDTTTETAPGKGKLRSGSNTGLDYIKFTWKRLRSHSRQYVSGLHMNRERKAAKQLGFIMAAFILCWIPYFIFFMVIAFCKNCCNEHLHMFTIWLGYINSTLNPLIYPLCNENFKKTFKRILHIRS
Protocol: (§1) To investigate the effect of berbamine on other pruritogenic GPCRs, we observed the effect of berbamine on histamine H1 receptor (H1R), histamine H4 receptor (H4R), MrgprC11, MrgprX4, PAR2, and TGR5.
(§2) Figure 3 Effects of berbamine on the activity of other pruritogenic GPCRs: (A,B) Effect of berbamine on histamine 1 receptor (H1R) and histamine 4 receptor (H4R). H1R- and H4R-expressing HEK293T cells were pretreated with 30 μM BBM for 10 min prior to 100 μM histamine treatment. […] (C) Effect of berbamine on PAR2. HT29 cells were pretreated with BBM for 10 min prior to 30 μM PAR2-AP treatment. […] (D) Effect of berbamine on MrgprC11. MrgprC11-expressing HEK293T cells were pretreated with BBM for 10 min prior to 100 μM […] treatment. (E) Effect of berbamine on MrgprX4. MrgprX4-expressing HEK293T cells were pretreated with BBM for 10 min prior to 80 μM DCA treatment. (F) Effect of berbamine on TGR5. TGR5 activity was measured using a YFP fluorescence quenching assay. CHO-K1 cells coexpressing TGR5 and a halide sensor YFP were pretreated with BBM and 80 μM DCA for 10 min prior to I^- treatment. Results were summarized as means ± S.E. (n = 6). NTC, nontransfected cells.
(§3) Intracellular calcium levels were measured using a Fluo-4 NW calcium assay kit (Invitrogen, Carlsbad, CA) as per the manufacturer’s protocol in HEK293T and HT29 cells. […]

[3] = target: T3, histamine H4 receptor (H4R) (Homo sapiens, UniProt Q9H3N8); assay: Histamine-induced activation of H4R in H4R-expressing HEK293T cells (calcium); type: cell-based; details: 30 μM compound, 10 min prior to 100 μM histamine
T3 construct: expressed in transfected cells; host or cells: HEK293T
T3 sequence (Q9H3N8 whole entry, species assumed): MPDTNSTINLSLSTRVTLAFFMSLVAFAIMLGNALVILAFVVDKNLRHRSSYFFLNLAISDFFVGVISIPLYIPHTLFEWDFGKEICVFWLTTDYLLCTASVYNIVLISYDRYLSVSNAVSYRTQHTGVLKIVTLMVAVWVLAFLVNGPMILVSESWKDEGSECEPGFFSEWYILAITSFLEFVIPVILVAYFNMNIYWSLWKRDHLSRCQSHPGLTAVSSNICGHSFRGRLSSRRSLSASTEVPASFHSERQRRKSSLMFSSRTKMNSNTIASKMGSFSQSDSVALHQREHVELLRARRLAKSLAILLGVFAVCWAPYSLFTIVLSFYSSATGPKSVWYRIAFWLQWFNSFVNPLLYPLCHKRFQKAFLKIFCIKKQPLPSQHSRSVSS
Protocol: as §1, §2, §3

[4] = target: T4, PAR2 (Homo sapiens, UniProt P55085); assay: PAR2-AP-induced activation of PAR2 in HT29 cells (calcium); type: cell-based; details: 30 μM compound, 10 min prior to 30 μM PAR2-AP
T4 construct: endogenous in cells; host or cells: HT29
T4 sequence (P55085 26-397): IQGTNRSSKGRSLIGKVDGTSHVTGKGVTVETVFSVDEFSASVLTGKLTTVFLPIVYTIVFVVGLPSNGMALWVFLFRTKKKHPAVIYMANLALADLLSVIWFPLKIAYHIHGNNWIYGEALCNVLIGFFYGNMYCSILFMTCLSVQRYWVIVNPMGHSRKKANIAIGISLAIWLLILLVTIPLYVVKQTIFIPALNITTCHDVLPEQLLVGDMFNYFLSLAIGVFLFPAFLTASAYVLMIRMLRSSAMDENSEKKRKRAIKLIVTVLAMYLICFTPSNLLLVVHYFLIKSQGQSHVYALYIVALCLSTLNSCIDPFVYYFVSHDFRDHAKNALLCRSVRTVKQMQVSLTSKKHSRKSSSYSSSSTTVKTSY
Protocol: as §1, §2, §3

[5] = test system: ERK1/2 phosphorylation through MrgprX1; assay: Immunoblot of ERK1/2 phosphorylation in HEK293T cells expressing MrgprX1; type: cell-based, human; details: HEK-MrgprX1 cells, 10 μM BBM for 10 min prior to CQ
[6] = test system: CQ-induced pruritus; assay: CQ-induced pruritus mouse model (scratching bouts); type: in vivo, BALB/c mice; details: 30 mg/kg intraperitoneally, 30 min before s.c. CQ (400 µg/50 µL), 30 min recording
Protocol: (§4) To investigate the antipruritic effect of berbamine, we observed the effect of berbamine on pruritogen-induced scratching behavior in BALB/c mice. Mice were transferred to clear cages and treated with berbamine intraperitoneally after a 30 min acclimatization period. Mouse behavior was recorded for 30 min right after the subcutaneous injection of pruritogens to the nape 30 min after berbamine treatment (Figure 7A). […] We further investigated the effect of berbamine on pruritus caused by other pruritogens.
(§5) Figure 7 Effect of berbamine on acute pruritogen-induced pruritus in mice: (A) Scheme of acute pruritogen-induced pruritus mouse model. […] Statistical significance of differences between each group and CQ group was assessed using one-way ANOVA with Tukey’s post hoc test. * p < 0.05, ** p < 0.01, *** p < 0.001. […] Statistical significance of differences was determined using Student’s t-test. […]
(§6) […] six-week-old BALB/c male mice were purchased from DBL (Chungcheong-do, Republic of Korea), and an additional 1 week was given for accommodation. […] After 30 min, pruritogen compounds (i.e., CQ, histamine, PAR2-AP, and DCA) were subcutaneously administered into the nape, and scratching bouts were recorded for 30 min. […] The total number of scratching bouts was counted by recording the number of scratching bouts in the recorded video over 30 min of observation time.

[7] = test system: histamine-induced itch; assay: Histamine-induced pruritus in mice (scratching bouts); type: in vivo, BALB/c mice; details: 30 mg/kg i.p.
Protocol: as §4, §5, §6

[8] = test system: PAR2-AP-induced itch; assay: PAR2-AP-induced pruritus in mice (scratching bouts); type: in vivo, BALB/c mice; details: 30 mg/kg i.p., PAR2-AP 100 μg/50 μL
Protocol: as §4, §5, §6

Compound: COc1cc2c3cc1Oc1c(OC)c(OC)cc4c1[C@@H](Cc1ccc(O)c(c1)Oc1ccc(cc1)C[C@@H]3N(C)CC2)N(C)CC4 [berbamine]
- activation of MrgprX1 by the compound itself ([1]; 30 μM berbamine (Figure S1)): did not activate MrgprX1 by itself
- mode of inhibition of the activation of MrgprX1 by CQ ([1]; 30 μM berbamine, CQ dose response (Figure S3)): competitive inhibitory effect
- inhibition of MrgprX1 activation by BAM8-22 ([1]; 10 min pretreatment, 500 nM BAM8-22 (Figure S2)): did not potently inhibit
- inhibition at 30 µM ([1]; HEK-293T, 30 μM test compound for 10 min, then 300 μM CQ, read-out: inhibition of the CQ-induced activation of MrgprX1 (screening)): > 90%
- IC50 ([1]; pretreated 10 min prior to 300 μM CQ, read-out: IC50 of inhibition of CQ-induced MrgprX1 activation): 1.6 µM
- effect on histamine-induced activation of H1R [2]: did not affect
- effect on histamine-induced activation of H4R [3]: did not affect
- effect on PAR2-AP-induced activation of PAR2 [4]: did not affect
- effect on CQ-induced ERK1/2 phosphorylation [5]: significantly reduced
- attenuation of CQ-induced pruritus (total scratching bouts) [6]: 80% and ~ 80%
- effect on total scratching bouts induced by histamine [7]: no significant effect
- effect on total scratching bouts induced by PAR2-AP [8]: no significant effect
